Test results reported in patent US20240058464A1 (Fortis Therapeutics, Inc., priority 2021, published 2024).
Read-outs that look alike come from different tables or passages of the source.

Key:
[1] = tested on: CD46 expression
[2] = tested on: CD46 expression; test: CD46 expression by RNA-sequencing in unpaired pre-treatment and post-treatment tumor biopsies; format: in vivo, human; details: for CD46 expression diff: Post minus Pre, unpaired biopsies, log2-transformed counts; for CD46 expression Percentage change: post- vs pre-treatment unpaired biopsies; for CD46 expression Post: post-treatment biopsies, unpaired, RNA-seq log2-transformed normalized counts
[3] = tested on: CD46 expression; test: CD46 expression by RNA-sequencing in paired tumor biopsies before and after therapy; details: paired biopsies; for CD46 expression, Pre-Treatment Biopsy / CD46 expression, Post-Treatment Biopsy: RNA-seq log2-transformed counts;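 on all read-outs here: FFPE human tumor biopsies, exome-capture RNA-seq, reads aligned to GRCh37, counts normalized for GC content, length and depth, summed per gene, log2-transformed, samples paired before versus after therapy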
[4] = Head and Neck Squamous Cell Carcinoma

C=C1C[C@@H]2[C@H](CC[C@]3(C)C(=O)CC[C@@H]23)[C@@]2(C)C=CC(=O)C=C12 [exemestane]
CD46 expression, Post-Treatment Biopsy [1]: 6.37 | CD46 expression, Pre-Treatment Biopsy [1]: 6.41 | CD46 expression diff (post minus pre) ([1]; Breast Cancer, paired biopsies): −0.04 | Percent Change in CD46 expression ([1]; Breast Cancer, paired biopsies): 0.5% | CD46 expression diff ([2]; Breast Cancer): 0.11 | CD46 expression Percentage change ([2]; Breast Cancer): 1.8% | CD46 expression Post ([2]; Breast Cancer): 6.50

pembrolizumab
CD46 expression diff ([2]; Bladder Cancer): 0.06 | CD46 expression Percentage change ([2]; Bladder Cancer): 0.9% | CD46 expression Post ([2]; Bladder Cancer): 6.18 | CD46 expression diff ([2]; Breast Cancer): −0.13 | CD46 expression Percentage change ([2]; Breast Cancer): −2.2% | CD46 expression Post ([2]; Breast Cancer): 5.95 | CD46 expression diff ([2]; Colorectal Cancer): 0.30 | CD46 expression Percentage change ([2]; Colorectal Cancer): 4.8% | CD46 expression Post ([2]; Colorectal Cancer): 6.50 | CD46 expression diff ([2]; Esophageal Cancer): 0.09 | CD46 expression Percentage change ([2]; Esophageal Cancer): 1.4% | CD46 expression Post ([2]; Esophageal Cancer): 6.01 | CD46 expression diff [2, 4]: 0.17 | CD46 expression Percentage change [2, 4]: 3.1% | CD46 expression Post [2, 4]: 5.76 | CD46 expression diff ([2]; Melanoma): 0.00 | CD46 expression Percentage change ([2]; Melanoma): 0.0% | CD46 expression Post ([2]; Melanoma): 5.30 | CD46 expression diff ([2]; Non-Small Cell Lung Cancer): −0.05 | CD46 expression Percentage change ([2]; Non-Small Cell Lung Cancer): −0.7% | CD46 expression diff (post minus pre) ([3]; Breast Cancer): −0.11 | Percent Change in CD46 expression ([3]; Breast Cancer): −1.7% | CD46 expression, Pre-Treatment Biopsy ([3]; Breast Cancer): 6.28 | CD46 expression diff (post minus pre) ([3]; Melanoma): 0.03 | Percent Change in CD46 expression ([3]; Melanoma): 0.6% | CD46 expression, Post-Treatment Biopsy ([3]; Melanoma): 5.25 | CD46 expression, Pre-Treatment Biopsy ([3]; Melanoma): 5.22 | CD46 expression diff (post minus pre) ([3]; Non-Small Cell Lung Cancer): −0.24 | Percent Change in CD46 expression ([3]; Non-Small Cell Lung Cancer): −3.8% | CD46 expression, Post-Treatment Biopsy ([3]; Non-Small Cell Lung Cancer): 6.00 | CD46 expression, Pre-Treatment Biopsy ([3]; Non-Small Cell Lung Cancer): 6.23
